Laboratory results as given in PubChem BioAssay (NCI).
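Test compounds were applied to cells in 96-well plates for 48 hours at 5 doses. GI50 marks 50% less growth. TGI: total growth inhibition.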

Key:
Assay in all cases: growth of human tumour cells (NCI), 48 h
RPMI-8226 leukemia = test system: RPMI-8226 leukemia
HS 578T breast = test system: HS 578T breast
SR leukemia = test system: SR leukemia
NCI-H226 lung = test system: NCI-H226 lung
OVCAR-5 ovarian = test system: OVCAR-5 ovarian
TK-10 renal = test system: TK-10 renal
MOLT-4 leukemia = test system: MOLT-4 leukemia
T-47D breast = test system: T-47D breast
SK-MEL-28 melanoma = test system: SK-MEL-28 melanoma
BT-549 breast = test system: BT-549 breast
IGROV1 ovarian = test system: IGROV1 ovarian
K-562 leukemia = test system: K-562 leukemia
MALME-3M melanoma = test system: MALME-3M melanoma
SK-OV-3 ovarian = test system: SK-OV-3 ovarian
NCI/ADR-RES ovarian = test system: NCI/ADR-RES ovarian
HCT-116 colon = test system: HCT-116 colon
HL-60(TB) leukemia = test system: HL-60(TB) leukemia
SF-295 CNS = test system: SF-295 CNS
SW-620 colon = test system: SW-620 colon
OVCAR-3 ovarian = test system: OVCAR-3 ovarian
HCT-15 colon = test system: HCT-15 colon
KM12 colon = test system: KM12 colon
SN12C renal = test system: SN12C renal
EKVX NSCLC = test system: EKVX NSCLC
MDA-MB-435 = test system: MDA-MB-435
MDA-MB-231 breast = test system: MDA-MB-231 breast
NCI-H23 lung = test system: NCI-H23 lung
HCC-2998 colon = test system: HCC-2998 colon
PC-3 prostate = test system: PC-3 prostate
SNB-75 CNS = test system: SNB-75 CNS
HT29 colon = test system: HT29 colon
UO-31 renal = test system: UO-31 renal
OVCAR-8 ovarian = test system: OVCAR-8 ovarian
HOP-92 NSCLC = test system: HOP-92 NSCLC
SK-MEL-5 melanoma = test system: SK-MEL-5 melanoma
ACHN renal = test system: ACHN renal
CAKI-1 renal = test system: CAKI-1 renal
786-0 renal = test system: 786-0 renal
A549 NSCLC = test system: A549 NSCLC
M14 melanoma = test system: M14 melanoma
SF-539 CNS = test system: SF-539 CNS
SNB-19 CNS = test system: SNB-19 CNS
HOP-62 NSCLC = test system: HOP-62 NSCLC
MCF7 breast = test system: MCF7 breast
A498 renal = test system: A498 renal
U251 CNS = test system: U251 CNS
UACC-62 melanoma = test system: UACC-62 melanoma
UACC-257 melanoma = test system: UACC-257 melanoma
LOX IMVI melanoma = test system: LOX IMVI melanoma
RXF 393 renal = test system: RXF 393 renal
COLO 205 colon = test system: COLO 205 colon
DU-145 prostate = test system: DU-145 prostate
CCRF-CEM leukemia = test system: CCRF-CEM leukemia
NCI-H522 lung = test system: NCI-H522 lung
NCI-H460 lung = test system: NCI-H460 lung
SF-268 CNS = test system: SF-268 CNS
OVCAR-4 ovarian = test system: OVCAR-4 ovarian
SK-MEL-2 melanoma = test system: SK-MEL-2 melanoma

In the case of `c1cnn2ncc(-c3ccnc(NCCCN4CCOCC4)n3)c2c1`, the GI50 (RPMI-8226 leukemia) is reported as 6.7 µM, the TGI (RPMI-8226 leukemia) is reported as > 25 µM and the GI50 (HS 578T breast) is reported as 6.2 µM. The TGI (HS 578T breast) was > 23.1 µM, the GI50 (SR leukemia) was 5.21 µM and the TGI (SR leukemia) was > 21.3 µM. For the same compound, the GI50 (NCI-H226 lung) was 3.79 µM, the TGI (NCI-H226 lung) was > 16.8 µM and the GI50 (OVCAR-5 ovarian) was 7.28 µM. For the same compound, the TGI (OVCAR-5 ovarian) was 24.9 µM, the GI50 (TK-10 renal) was 6.67 µM and the TGI (TK-10 renal) was > 23.2 µM. The GI50 (MOLT-4 leukemia) was 9.61 µM, the TGI (MOLT-4 leukemia) was > 25 µM and the GI50 (T-47D breast) was 5.93 µM. For the same compound, the TGI (T-47D breast) was > 21.3 µM, the GI50 (SK-MEL-28 melanoma) was 5.65 µM and the TGI (SK-MEL-28 melanoma) was > 18 µM. For the same compound, the GI50 (BT-549 breast) was 7.5 µM, the TGI (BT-549 breast) was > 25 µM and the GI50 (IGROV1 ovarian) was 7.51 µM. The TGI (IGROV1 ovarian) was > 25 µM, the GI50 (K-562 leukemia) was > 22.4 µM and the TGI (K-562 leukemia) was > 25 µM. For the same compound, the GI50 (MALME-3M melanoma) was 7.63 µM, the TGI (MALME-3M melanoma) was 24.5 µM and the GI50 (SK-OV-3 ovarian) was 8.34 µM. For the same compound, the TGI (SK-OV-3 ovarian) was > 25 µM, the GI50 (NCI/ADR-RES ovarian) was 6.78 µM and the TGI (NCI/ADR-RES ovarian) was > 25 µM. The GI50 (HCT-116 colon) was 7.25 µM, the TGI (HCT-116 colon) was > 25 µM and the GI50 (HL-60(TB) leukemia) was 6.08 µM. For the same compound, the TGI (HL-60(TB) leukemia) was 17.7 µM, the GI50 (SF-295 CNS) was 5.81 µM and the TGI (SF-295 CNS) was > 20.4 µM. The GI50 (SW-620 colon) was 6.66 µM, the TGI (SW-620 colon) was > 25 µM and the GI50 (OVCAR-3 ovarian) was 6.16 µM. The TGI (OVCAR-3 ovarian) was > 21.9 µM, the GI50 (HCT-15 colon) was 8.01 µM and the TGI (HCT-15 colon) was > 25 µM. The GI50 (KM12 colon) was 6.85 µM, the TGI (KM12 colon) was > 21.4 µM and the GI50 (SN12C renal) was 8.2 µM. For the same compound, the TGI (SN12C renal) was > 25 µM, the GI50 (EKVX NSCLC) was 6.67 µM and the TGI (EKVX NSCLC) was > 25 µM. For the same compound, the GI50 (MDA-MB-435) was 7.56 µM, the TGI (MDA-MB-435) was > 25 µM and the GI50 (MDA-MB-231 breast) was 8.04 µM. The TGI (MDA-MB-231 breast) was > 25 µM, the GI50 (NCI-H23 lung) was 7.87 µM and the TGI (NCI-H23 lung) was > 25 µM. For the same compound, the GI50 (HCC-2998 colon) was 9.29 µM, the TGI (HCC-2998 colon) was > 25 µM and the GI50 (PC-3 prostate) was 8.71 µM. For the same compound, the TGI (PC-3 prostate) was > 25 µM, the GI50 (SNB-75 CNS) was 5.52 µM and the TGI (SNB-75 CNS) was 12.7 µM. The GI50 (HT29 colon) was 7.43 µM, the TGI (HT29 colon) was > 25 µM and the GI50 (UO-31 renal) was 5.23 µM. The TGI (UO-31 renal) was 21 µM, the GI50 (OVCAR-8 ovarian) was 7.03 µM and the TGI (OVCAR-8 ovarian) was > 25 µM. For the same compound, the GI50 (HOP-92 NSCLC) was 5.08 µM, the TGI (HOP-92 NSCLC) was 17.4 µM and the GI50 (SK-MEL-5 melanoma) was 3.63 µM. The TGI (SK-MEL-5 melanoma) was 9.7 µM, the GI50 (ACHN renal) was 6.08 µM and the TGI (ACHN renal) was > 25 µM. The GI50 (CAKI-1 renal) was 6.64 µM, the TGI (CAKI-1 renal) was > 25 µM and the GI50 (786-0 renal) was 8.63 µM. The TGI (786-0 renal) was > 25 µM, the GI50 (A549 NSCLC) was 7.7 µM and the TGI (A549 NSCLC) was > 25 µM. The GI50 (M14 melanoma) was 8.63 µM, the TGI (M14 melanoma) was > 25 µM and the GI50 (SF-539 CNS) was 6.18 µM. The TGI (SF-539 CNS) was 18.7 µM, the GI50 (SNB-19 CNS) was 8.35 µM and the TGI (SNB-19 CNS) was > 25 µM. For the same compound, the GI50 (HOP-62 NSCLC) was 5.76 µM, the TGI (HOP-62 NSCLC) was > 16.6 µM and the GI50 (MCF7 breast) was 5.97 µM. For the same compound, the TGI (MCF7 breast) was > 19 µM, the GI50 (A498 renal) was 4.18 µM and the TGI (A498 renal) was 12.2 µM. For the same compound, the GI50 (U251 CNS) was 7.18 µM, the TGI (U251 CNS) was > 25 µM and the GI50 (UACC-62 melanoma) was 5.86 µM. For the same compound, the TGI (UACC-62 melanoma) was 18.4 µM, the GI50 (UACC-257 melanoma) was 6.68 µM and the TGI (UACC-257 melanoma) was > 22.1 µM. For the same compound, the GI50 (LOX IMVI melanoma) was 5.18 µM, the TGI (LOX IMVI melanoma) was > 25 µM and the GI50 (RXF 393 renal) was 3.34 µM. It also gave a TGI (RXF 393 renal) of 7.78 µM, a GI50 (COLO 205 colon) of 3.9 µM and a TGI (COLO 205 colon) of 7.96 µM. For the same compound, the GI50 (DU-145 prostate) was 7.72 µM, the TGI (DU-145 prostate) was > 25 µM and the GI50 (CCRF-CEM leukemia) was 7.73 µM. The TGI (CCRF-CEM leukemia) was > 25 µM, the GI50 (NCI-H522 lung) was 10.6 µM and the TGI (NCI-H522 lung) was > 25 µM. For the same compound, the GI50 (NCI-H460 lung) was 6.56 µM, the TGI (NCI-H460 lung) was > 25 µM and the GI50 (SF-268 CNS) was 6.39 µM. The TGI (SF-268 CNS) was > 23.3 µM, the GI50 (OVCAR-4 ovarian) was 11 µM and the TGI (OVCAR-4 ovarian) was > 25 µM. The GI50 (SK-MEL-2 melanoma) was 5.12 µM and the TGI (SK-MEL-2 melanoma) was 13.9 µM.
